System: lactic acid bacteria strains
Experiment: Growth of lactic acid bacteria strains on media containing selenate or selenite
Format: cell-based, lactic acid bacteria from gastrointestinal tracts of chicken
Settings: 250 ppm in media
Method: Putative strains of LAB were grown on MRS agar plates containing various concentrations of selenate and selenite.

SMILES | Number of lactic acid bacteria strains grown (percentage of bacterial cells that grew) (incubation time 12 h) | Number of lactic acid bacteria strains grown (percentage of bacterial cells that grew) (incubation time 24 h) | Number of lactic acid bacteria strains grown (percentage of bacterial cells that grew) (incubation time 48 h) | Number of lactic acid bacteria strains grown (percentage of bacterial cells that grew) (incubation time >48 h)
O=[Se](=O)([O-])[O-].[Na+].[Na+] [Selenate, sodium selenate] | 75.3 percentage | 14.4 percentage | 10.3 percentage | 0 percentage
O=[Se](O)O [Selenite, sodium selenite] | 62.9 percentage | 2.1 percentage | 24.7 percentage | 10.3 percentage

— patent US20070077238A1, “Production of organic and inorganic selenium compounds by lactic acid bacteria” (priority 2005, published 2007)
